In patent US10004777B2, “Bioactive compositions from Theacea plants and processes for their production and use” (ISP Investments Inc., priority 2004, dated 2018):

Test: Superoxide scavenging activity (xanthine oxidase / cytochrome c reduction)
Assay type: biochemical
Excerpt: Method 7: Method for Determination of Superoxide Scavenging Activity. The enzymatic system, which uses xanthine oxidase (a purified enzyme preparation produced by “Sigma”), was used to generate superoxide anions in high yield and in a controlled fashion. The conversion of xanthine to […] by this enzyme generates amounts of superoxide anions and reduction of ferricytochrome c to ferrocytochrome c was used as a sensitive measure of superoxide levels. The measurements of ferrocytochrome c level (550 nm), when tested bioactive compositions were added to the reaction system, allow for determination of their superoxide scavenging activity. The final concentrations per well were for cytochrome c 75 μM, xanthine 425 μm/L, and xanthine oxidase 10 mU/ml.

## O=C(/C=C/c1ccc(O)c(O)c1)O[C@H](Cc1ccc(O)c(O)c1)C(=O)O [rosmarinic acid]
  ICR50 of positive control: 26.5 µg/mL
